Where “and” joins values, the source holds several entries; their conditions need not be identical. Identical values can stand only once. Like-named read-outs stand apart in the source and are kept apart here.
Assays:
[1] = test system: Akt; parameters: scale not given here; details: class symbols, key not given; cited from earlier work
[2] = test system: ERK; test: ERK phosphorylation in adult zebrafish heart (Western blot); format: in vivo; details: adult zebrafish heart, control experiments
Description: Adult zebrafish (˜12-months-old) were transferred to swimming medium containing 1 μM of CS drugs, as specified in the following examples. At various time points (5-30 min), as indicated in the following examples, the zebrafish were transferred to perfusion buffer and the hearts were immediately removed and transferred to RIPA lysis buffer (Sigma-Aldrich), and protease inhibitor cocktail (P8340, Sigma-Aldrich), at a 1:100 dilution). The tissue was homogenized in an ultrasonic homogenizer (Microson, NY, USA) and aliquots of the homogenate were stored at −70° C. until used.
Protein dilution and separation on SDS-PAGE electrophoresis, their transfer to a polyvinylidene fluoride membrane were carried out. […] The membranes were washed with TBS containing 0.1% Tween and exposed to horseradish peroxidase-conjugated secondary goat anti-rabbit IgG antibody (1:50,000). The membranes were stripped prior to their exposure to a different antibody. Detection was carried out with the aid of a Luminata™ Crescendo Western HRP Substrates, according to the manufacturer's instructions.

[3] = test system: primary adult zebrafish cardiomyocytes; test: Primary adult zebrafish cardiomyocyte contractility; format: cell-based
Description: Adult (4 to 12-month-old) ventricular myocytes were obtained by enzymatic dissociation (with collagenase II and IV, at 5 mg/ml, each). The zebrafish were stunned by a blow to the head and the brain was pithed. The heart was quickly removed and placed in a small Petri dish containing 10 ml isolation solution: 100 mM NaCl, 10 mM KCl, 1.2 mM KH2PO4, 4 mM MgSO4, 50 mM taurine, 20 mM glucose, and 10 mM Hepes, pH 6.9. The ventricle was cut free from the bulbus and atrium under a binocular. Ventricles from 3 fish were incubated for 45 minutes at 32° C. in a solution containing perfusion buffer (150 mM NaCl, 5.4 mM KCl, 1.5 mM MgSO4, 0.4 mM NaH2PO4, 2 mM CaCl2, 10 mM glucose, and 10 mM Hepes, pH 7.7). Collagenases II and IV (Gibco, NY, USA, 5 mg/ml each) and additional CaCl2 (2.012 mM final concentration) were added. Following Eppendorf centrifugation (1 minute, 250×g at room temperature) the precipitated cells were suspended in 1 ml perfusion buffer for 30 minutes at room temperature before use.
Cells were transferred to a chamber with a quartz base and examined using an inverted epifluorescence microscope (Nikon Diaphot 200, Japan). The myocytes were field-stimulated (0.5 Hz, 70 V, square waves) and contractions were measured using a video motion edge detector (Crescent Electronics, Sandy, Utah, USA) at the rate of 5 Hz. Cardiomyocyte performance was calculated as the percentage of resting cell length. The slopes of contraction and relaxation (+dL/dt and −dL/dt) were calculated from the linear portions of the changes in contractility. 9 cells per each group were measured. Each of the experiments was repeated at least 3 times with identical results.

[4] = test system: wild-type zebrafish larvae heart; format: in vivo, zebrafish (Danio rerio); details: for effect on force of contraction / effect on heart rate: 1 nM
Description: Experiments were performed on wild-type (WT, AB strain) zebrafish (Danio rerio). The fish were maintained in accordance with the principles established by the NIH. […] The fish were kept in swimming medium (E3 medium) in small aquaria at 28° C. and maintained under a 14h: 10h light:dark cycle. The zebrafish larvae were maintained in the presence of 0.1% methylene blue (M9140, Sigma-Aldrich Inc, Israel) at 28° C. All measurements were taken in embryos at 72 hours post fertilization (hpf).
Ouabain, bufalin, digoxin, acetylcholine, carbachol, […] (pp2) and U0126 (1,4-diamino-2,3-dicyano-1,4-bis(2-aminophenylthio)butadiene) were purchased from Sigma-Aldrich Inc., Israel. The compounds were dissolved in egg water (0.3 g Instant Ocean Salt in distilled water) to a final selected concentration, as specified in the following examples. […]
(§1) Filming process Zebrafish larvae heart imaging was performed using an Olympus CKX41 (Japan) […] microscope with ×10 or ×20 magnification, and integrated incandescent illumination. A FastCam imi-tech (Korea) high speed digital camera with 640×480 pixel gray scale image sensor was mounted on the microscope, using ImCam software (IMI Technology, Co. Ltd) for high speed video recording. The larvae were anesthetized by placing them in filming/anesthetizing medium. Each larva in 0.5 ml filming/anesthetizing medium was transferred to a 96-well tissue culture plate at room temperature and sequential images of the heart were obtained, with the larvae positioned on their side, at 80 fps during 10 seconds with a shutter speed of 0.016 seconds.
Physiological parameters of cardiovascular performance, as indicated hereinbelow, were evaluated in the zebrafish larvae. Image analysis applications ImageJ (NIH, USA) were used, allowing the delineation of the endomyocardial border at the end of systole or end of diastole to define the ventricular area. Sequential still frames were analyzed to capture ventricular end-systole and end-diastole images. End Systolic Area (ESA, FIG. 1B) and End Diastolic Area (EDA, FIG. 1C) were used to calculate Fractional Area Change (FAC), according to the equation: FAC=(EDA-ESA)/EDA*100. The Ejection Fraction (EF) was determined by an independent estimate of ventricular volume. This was achieved by placing scan lines across the midventricular short axis (SA) and long axis (LA) at the end of systole (FIG. 1D) and diastole (FIG. 1E). […] EF was then calculated according to the equation: EF=(EDV-ESV)/EDV*100. Heart rate (HR) was measured in beats per minute. Cardiac output (CO) was calculated according to the equation: CO=(EDV-ESV)*HR. A minimum of five sequential pairs of systolic and diastolic cycles were measured and analyzed in 9-12 larvae for each treatment.

[5] = test system: zebrafish accordion mutant (acc) larvae heart; test: In-vivo heart contractility measurements in zebrafish acc mutant larvae; parameters: species or system zebrafish (Danio rerio); details: 1 nM, 90 minutes
Description: Ouabain, bufalin, digoxin, acetylcholine, carbachol, […] (pp2) and U0126 (1,4-diamino-2,3-dicyano-1,4-bis(2-aminophenylthio)butadiene) were purchased from Sigma-Aldrich Inc., Israel. The compounds were dissolved in egg water (0.3 g Instant Ocean Salt in distilled water) to a final selected concentration, as specified in the following examples. The larvae in 20 μL of E3 medium were transferred to the egg water solution containing one or two of the above specified drugs of choice, and incubated for 60-90 minutes at 28° C.
as §1
Physiological parameters of cardiovascular performance, as indicated hereinbelow, were evaluated in the zebrafish larvae. […] Sequential still frames were analyzed to capture ventricular end-systole and end-diastole images. […] The Ejection Fraction (EF) was determined by an independent estimate of ventricular volume. […] EF was then calculated according to the equation: EF=(EDV-ESV)/EDV*100. Heart rate (HR) was measured in beats per minute. Cardiac output (CO) was calculated according to the equation: CO=(EDV-ESV)*HR. A minimum of five sequential pairs of systolic and diastolic cycles were measured and analyzed in 9-12 larvae for each treatment.

[6] = in vivo; cited from earlier work
[7] = wt, ERK inhibitor experiment, 0.1 nM Oua, 10 nM PD98059, 20 minutes, 0.5 Hz

SMILES: C=CCc1ccc(O)c(-c2ccc(O)c(CC=C)c2)c1 [Honokiol, 2-(4-hydroxy-3-prop-2-enylphenyl)-4-prop-2-enylphenol]
- Akt [1]: ✓

SMILES: CCCCCCCCCCCCCCCCOP(=O)([O-])OCC[N+](C)(C)C [Miltefosine, hexadecyl 2-(trimethylazaniumyl)ethyl phosphate]
- Akt [1]: ✓

SMILES: COc1cccc(-c2cc(=O)c3ccccc3o2)c1N [PD98059, 2′-amino-3′-methoxyflavone]
- effect on CS-induced increase in ERK phosphorylation [2]: inhibit the CS-induced increase in ERK phosphorylation
- amplitude of cell contraction, inhibitor alone ([3]; 10 nM PD98059): did not affect the amplitude of cell contraction
- contractility and relaxation rise time, inhibitor alone ([3]; 10 nM PD98059): increased contractility and relaxation rise time
- ouabain-induced increases in all contractility parameters in the presence of the inhibitor ([3]; 10 nM PD98059, 0.1 nM ouabain): completely prevented
- Amplitude [3, 7]: 0.13 ± 0.01
- Contraction Rate (−dv/dt) [3, 7]: 0.87 ± 0.09
- Relaxation Rate (+dv/dt) [3, 7]: 0.78 ± 0.14

SMILES: CC(C)(C)n1nc(-c2ccc(Cl)cc2)c2c(N)ncnc21 [PP2]
- effect of inhibitor alone on heart function / basal contractility ([4]; PP2 50 nM, U0126 1 μM, MK-2206 10 nM for 2 hours): did not affect heart function
- effect on CS-induced increase in contractility ([4]; inhibitor 30 minutes (PP2 50 nM; U0126 1 μM), then CS, measured 90 minutes later): completely abolished the CS-induced increase in contractility

SMILES: Cc1ccccc1CN1C2=NCCN2C(=O)C2=C1CCN(Cc1ccccc1)C2 [TIC10 Analogue, 2,6,7,8,9,10-hexahydro-10-[(2-methylphenyl)methyl]-7-(phenylmethyl)-imidazo[1,2-a]pyrido[4,3-d]pyrimidin-5(3H)-one]
- Akt [1]: ✓

SMILES: Cc1ccccc1CN1C(=O)C2=C(CCN(Cc3ccccc3)C2)N2CCN=C12 [TIC10, 2,4,6,7,8,9-hexahydro-4-[(2-methylphenyl)methyl]-7-(phenylmethyl)-imidazo[1,2-a]pyrido[3,4-e]pyrimidin-5(1H)-one]
- Akt [1]: ✓

SMILES: N#CC(=C(N)Sc1ccccc1N)C(C#N)=C(N)Sc1ccccc1N [U0126, 1,4-diamino-2,3-dicyano-1,4-bis(2-aminophenylthio)butadiene]
- effect of inhibitor alone on heart function / basal contractility ([4]; zebrafish, in vivo): did not affect basal contractility
- effect on CS-induced increase in contractility ([4]; zebrafish, in vivo): prevented the CS-induced increase in contractility
- effect on CS-induced increase in ERK phosphorylation [2]: inhibit the CS-induced increase in ERK phosphorylation

SMILES: CNC[C@H](O)c1ccc(O)c(O)c1 [adrenalin]
- effect on heart contractility and rate ([4]; zebrafish, in vivo): significant increase in heart contractility and rate
- effect on heart force of contraction and rate ([4]; zebrafish, in vivo): increase in heart contractility and rate
- increase in CO ([4]; zebrafish, in vivo): 18.34±1.97% and 30.48±2.67%

SMILES: C[C@]12CC[C@H](O)C[C@H]1CC[C@@H]1[C@@H]2CC[C@]2(C)[C@@H](c3ccc(=O)oc3)CC[C@]12O [bufalin, 5-[(3 S,5R,8R,9S,10S,13R,14S,17R)-3,14-dihydroxy-10,13-dimethyl-1,2,3,4,5,6,7,8,9,11,12,15,16,17-tetradecahydrocyclopenta[a]phenanthren-17-yl]pyran-2-one]
- effect on force of contraction [4]: increased significantly the force of contraction
- effect on heart rate [4]: without affecting heart rate
- concentration producing a significant increase in heart contractility ([4]; added to larvae swimming medium): 0.1 nM
- effect on heart contractility [5]: no effect on heart contractility

SMILES: C[N+](C)(C)CCOC(N)=O [carbachol]
- reduction in cardiac output (CO) ([4]; 1 μM, 90 minutes, wt larvae): 10.39±2.2%
- reduction in cardiac output (CO) ([4]; 10 μM, 90 minutes, wt larvae): 16.92±3%
- effect on heart force of contraction and rate ([4]; 1 and 10 μM, 90 minutes, wt larvae): decreased the heart force of contraction and rate

SMILES: C[C@H]1O[C@@H](O[C@@H]2[C@@H](O)C[C@H](O[C@@H]3[C@@H](O)C[C@@H](O[C@H]4CC[C@@]5(C)[C@H](CC[C@@H]6[C@@H]5C[C@@H](O)[C@]5(C)C(C7=CC(=O)OC7)CC[C@]65O)C4)O[C@@H]3C)O[C@@H]2C)C[C@H](O)[C@H]1O (stereo partly drawn) [digoxin, 4-[(3 S,5R,8R,9S,10S,12R,13 S, 14S)-3-[(2S,4S,5R,6R)-5-[(2S,4S,5R,6R)-5-[(2S,4S,5R,6R)-4,5-dihydroxy-6-methyl-oxan-2-yl]oxy-4-hydroxy-6-methyl-oxan-2-yl]oxy-4-hydroxy-6-methyl-oxan-2-yl]oxy-12,14-dihydroxy-10,13-dimethyl-1,2,3,4,5,6,7,8,9,11,12,15,16,17-tetradecahydrocyclopenta[a]phenanthren-17-yl]-5H-furan-2-one]
- effect on force of contraction [4]: increased significantly the force of contraction
- effect on heart rate [4]: without affecting heart rate
- concentration required for a similar effect, relative to bufalin or ouabain ([4]; vs 0.1 nM bufalin or ouabain): about tenfold
- effect on heart contractility [5]: no effect on heart contractility
- plasma concentration at which significant signs of toxicity are observed [6]: 3 nM
- plasma concentration considered beneficial [6]: about 1 nM

Reference: patent US20180369264A1, “COMBINATION OF A CARDIAC STEROID AND AN AKT INHIBITOR FOR THE TREATMENT OF CARDIOVASCULAR DISEASES AND DISORDERS” (YISSUM RESEARCH DEVELOPMENT COMPANY OF THE HEBREW …, priority 2015, published 2018)
